From PubChem BioAssay (NCI)
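Briefly, cells in 96-well plates were exposed to five compound concentrations for 48 h, and endpoints were estimated by linear interpolation. TGI is the concentration that stops growth completely.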

Experiments:
Assay in all cases: NCI tumour cell line growth inhibition, 48 h
OVCAR-8 ovarian = system: OVCAR-8 ovarian
K-562 leukemia = system: K-562 leukemia
HCC-2998 colon = system: HCC-2998 colon
SNB-75 CNS = system: SNB-75 CNS
M14 melanoma = system: M14 melanoma
ACHN renal = system: ACHN renal
NCI-H23 lung = system: NCI-H23 lung
786-0 renal = system: 786-0 renal
COLO 205 colon = system: COLO 205 colon
NCI/ADR-RES ovarian = system: NCI/ADR-RES ovarian
SN12C renal = system: SN12C renal
HOP-62 NSCLC = system: HOP-62 NSCLC
KM12 colon = system: KM12 colon
MDA-MB-435 = system: MDA-MB-435
NCI-H460 lung = system: NCI-H460 lung
BT-549 breast = system: BT-549 breast
SK-MEL-5 melanoma = system: SK-MEL-5 melanoma
DU-145 prostate = system: DU-145 prostate
OVCAR-4 ovarian = system: OVCAR-4 ovarian
HT29 colon = system: HT29 colon
CAKI-1 renal = system: CAKI-1 renal
UACC-62 melanoma = system: UACC-62 melanoma
SK-MEL-28 melanoma = system: SK-MEL-28 melanoma
SW-620 colon = system: SW-620 colon
UACC-257 melanoma = system: UACC-257 melanoma
IGROV1 ovarian = system: IGROV1 ovarian
CCRF-CEM leukemia = system: CCRF-CEM leukemia
MCF7 breast = system: MCF7 breast
SF-539 CNS = system: SF-539 CNS
PC-3 prostate = system: PC-3 prostate
HCT-116 colon = system: HCT-116 colon
RXF 393 renal = system: RXF 393 renal
SNB-19 CNS = system: SNB-19 CNS
MDA-N = system: MDA-N
U251 CNS = system: U251 CNS
OVCAR-5 ovarian = system: OVCAR-5 ovarian
MOLT-4 leukemia = system: MOLT-4 leukemia
LOX IMVI melanoma = system: LOX IMVI melanoma
HOP-92 NSCLC = system: HOP-92 NSCLC
RPMI-8226 leukemia = system: RPMI-8226 leukemia
EKVX NSCLC = system: EKVX NSCLC
SR leukemia = system: SR leukemia
OVCAR-3 ovarian = system: OVCAR-3 ovarian
T-47D breast = system: T-47D breast
A549 NSCLC = system: A549 NSCLC
NCI-H226 lung = system: NCI-H226 lung
UO-31 renal = system: UO-31 renal
SF-295 CNS = system: SF-295 CNS
HCT-15 colon = system: HCT-15 colon
A498 renal = system: A498 renal
SK-MEL-2 melanoma = system: SK-MEL-2 melanoma
MDA-MB-231 breast = system: MDA-MB-231 breast
HS 578T breast = system: HS 578T breast
SF-268 CNS = system: SF-268 CNS

CC1(C)OCC2OC3([C@H](O)CCO)OC(C)(C)OC3C2O1 (stereo partly specified)
TGI (OVCAR-8 ovarian): > 100 µM | TGI (K-562 leukemia): > 100 µM | TGI (HCC-2998 colon): > 100 µM | TGI (SNB-75 CNS): > 100 µM | TGI (M14 melanoma): > 100 µM | TGI (ACHN renal): > 100 µM | TGI (NCI-H23 lung): > 100 µM | TGI (786-0 renal): > 100 µM | TGI (COLO 205 colon): > 100 µM | TGI (NCI/ADR-RES ovarian): > 100 µM | TGI (SN12C renal): > 100 µM | TGI (HOP-62 NSCLC): > 100 µM | TGI (KM12 colon): > 100 µM | TGI (MDA-MB-435): > 100 µM | TGI (NCI-H460 lung): > 100 µM | TGI (BT-549 breast): > 100 µM | TGI (SK-MEL-5 melanoma): > 100 µM | TGI (DU-145 prostate): > 100 µM | TGI (OVCAR-4 ovarian): > 100 µM | TGI (HT29 colon): > 100 µM | TGI (CAKI-1 renal): > 100 µM | TGI (UACC-62 melanoma): > 100 µM | TGI (SK-MEL-28 melanoma): > 100 µM | TGI (SW-620 colon): > 100 µM | TGI (UACC-257 melanoma): > 100 µM | TGI (IGROV1 ovarian): > 100 µM | TGI (CCRF-CEM leukemia): > 100 µM | TGI (MCF7 breast): > 100 µM | TGI (SF-539 CNS): > 100 µM | TGI (PC-3 prostate): > 100 µM | TGI (HCT-116 colon): > 100 µM | TGI (RXF 393 renal): > 100 µM | TGI (SNB-19 CNS): > 100 µM | TGI (MDA-N): > 100 µM | TGI (U251 CNS): > 100 µM | TGI (OVCAR-5 ovarian): > 100 µM | TGI (MOLT-4 leukemia): > 100 µM | TGI (LOX IMVI melanoma): > 100 µM | TGI (HOP-92 NSCLC): > 100 µM | TGI (RPMI-8226 leukemia): > 100 µM | TGI (EKVX NSCLC): > 100 µM | TGI (SR leukemia): > 100 µM | TGI (OVCAR-3 ovarian): > 100 µM | TGI (T-47D breast): > 100 µM | TGI (A549 NSCLC): > 100 µM | TGI (NCI-H226 lung): > 100 µM | TGI (UO-31 renal): > 100 µM | TGI (SF-295 CNS): > 100 µM | TGI (HCT-15 colon): > 100 µM | TGI (A498 renal): > 100 µM | TGI (SK-MEL-2 melanoma): > 100 µM | TGI (MDA-MB-231 breast): > 100 µM

Cc1ccc(-c2ccc(Nc3c4ccccc4nc4ccccc34)cc2)cn1
TGI (OVCAR-8 ovarian): > 100 µM | TGI (K-562 leukemia): 10.7 µM | TGI (HCC-2998 colon): 44.7 µM | TGI (M14 melanoma): 11.2 µM | TGI (ACHN renal): 6.76 µM | TGI (NCI-H23 lung): 88.7 µM | TGI (786-0 renal): 3.42 µM | TGI (COLO 205 colon): 12.2 µM | TGI (NCI/ADR-RES ovarian): 65.6 µM | TGI (SN12C renal): 15.3 µM | TGI (HOP-62 NSCLC): 3.77 µM | TGI (KM12 colon): 19.1 µM | TGI (MDA-MB-435): 16 µM | TGI (NCI-H460 lung): 5.3 µM | TGI (SK-MEL-5 melanoma): 16.5 µM | TGI (HS 578T breast): 58.3 µM | TGI (HT29 colon): 4.75 µM | TGI (CAKI-1 renal): 9.02 µM | TGI (UACC-62 melanoma): 11.5 µM | TGI (SK-MEL-28 melanoma): 9.18 µM | TGI (SW-620 colon): 14.9 µM | TGI (UACC-257 melanoma): 28.5 µM | TGI (IGROV1 ovarian): 18.4 µM | TGI (MCF7 breast): 8.91 µM | TGI (SF-539 CNS): 21.1 µM | TGI (PC-3 prostate): 28.8 µM | TGI (HCT-116 colon): 10.3 µM | TGI (SNB-19 CNS): > 100 µM | TGI (MDA-N): 19.6 µM | TGI (OVCAR-5 ovarian): 69.5 µM | TGI (MOLT-4 leukemia): 3.59 µM | TGI (LOX IMVI melanoma): 6.54 µM | TGI (HOP-92 NSCLC): 3.28 µM | TGI (SF-268 CNS): > 100 µM | TGI (RPMI-8226 leukemia): 4.54 µM | TGI (EKVX NSCLC): > 100 µM | TGI (SR leukemia): 6.56 µM | TGI (OVCAR-3 ovarian): 6.41 µM | TGI (T-47D breast): 5.44 µM | TGI (A549 NSCLC): 10.3 µM | TGI (UO-31 renal): 13.2 µM | TGI (SF-295 CNS): 11.9 µM | TGI (HCT-15 colon): 17.2 µM | TGI (SK-MEL-2 melanoma): 3.63 µM
